Results on 3 molecules are retold here after patent US6261760A, “Regulation of the cell cycle by sterols” (priority 1999, dated 2001).

Experiment [1] concerns fibroblast monolayers. Description: FC efflux from fibroblast monolayers (3H-FC label). In kind it is cell-based, human. The procedure: Fibroblast monolayers were equilibrated with ^3 H-FC-labeled native plasma or with isolated ^3 H-labeled LDL, as specified for each experiment. Following incubation, the dishes were washed with albumin-complete PBS and then (×4) with complete PBS. They were then incubated for 3 min with unlabeled plasma or lipoprotein fractions and the rate of appearance of radioactivity in the medium determined. Samples of medium ([…]) were immediately chilled in ice water and centrifuged (10 min, 2000×g) at 0-2° C. ^3 H-cholesterol radioactivity in the supernatant was either assayed directly, or fractionated by agarose gel electrophoresis. FC efflux was linear as previously reported (Kawano et al., Biochemistry, 32: 5025-5028 (1993)).
For electrophoresis, […] portions of labeled medium were added to strips of 0.75% w/v agarose in 0.025 M barbital buffer (pH 8.6) and separated as previously described (Fielding et al., Biochemistry, 30: 8551-8557 (1991)). 2.5 mm gel fractions were then collected, and radioactivity measured. The location of major lipoprotein classes was determined from strips run simultaneously with whole native plasma equilibrated (60 min, 37° C.) With ^3 HFC.
Rates of FC influx and efflux between medium and fibroblast monolayers preincubated for 24 h with 7-80% native human plasma in DMEM were determined. Cells equilibrated in 80% compared to 7% v/v plasma contained 35-40% more total cholesterol but only 10-15% more FC. In 50% v/v plasma, cholesteryl ester levels were lower than in 80% plasma but FC levels were almost the same. Rates of transfer of FC between the cells and their extracellular medium were determined for each plasma dilution. […] was measured as the rate of transfer of ^3 H-FC radioactivity from labeled native plasma to unlabeled cells. […] was determined as the rate of transfer of radioactivity from uniformly labeled cells to unlabeled native plasma medium.

The subject of experiment [2] is LDL FC uptake by fibroblast monolayers. The experiment in a line: Transfer of LDL-derived 3H-FC into fibroblast monolayers with metabolic inhibitors (Example 2). In kind it is cell-based, human. The settings on record: brefeldin A, vinblastine, taxol, nocodazole; NEM 2 mM.
Experiment [3] relates to intracellular FC vesicle fractions of fibroblast monolayers. The experiment in a line: D2O-Ficoll density gradient fractionation of LDL-derived 3H-FC vesicles. In kind it is cell-based, human. The conditions noted are these: NEM 2 mM. The protocol:
Early endosomal vesicles were labeled with LDL-derived ^3 H-FC by a modification of procedures described by Woodman & Warren (1991) J. Cell Biol., 112:1133-1141. Fibroblast monolayers in 10 cm dishes were washed in ice-cold PBS. The cells were labeled by incubation (2 h, 4° C.) with ^3 H-FC LDL. The monolayers were washed in PBS and brought to 31° C. for 0-15 min. The cells were then quickly chilled on ice, and cold unlabeled LDL was added (15 min, 4° C.) to displace any remaining surface-bound labeled LDL and all subsequent steps were carried out at 0-4° C.
Cells from three 10 cm dishes were used for each gradient. Monolayers were washed with 140 mM sucrose, 0.5 mM MgCl2, 1 mM EGTA, 20 mM 2-[N-morpholino]ethanesulfonic acid (MES), 70 mM potassium acetate, pH 6.6 (`vesicle buffer`) (Woodman & Warren, supra.). […] Fractions (~0.6 ml) were collected dropwise and the distribution of FC label determined. […] Solution density was determined gravimetrically using […] portions of each fraction. […]
The identity of intracellular transport intermediates and the extent of any cross-contamination between fractions was established using specific antibodies to protein markers, labeled ligands of receptor proteins, and assays of enzyme proteins. […] The distribution of antigen between different gradient fractions was determined with a computerized scanner (ImageQuant, Molecular Devices, Sunnyvale, Calif., USA).

Experiment [4] has as its system fibroblast monolayers. Description: Cellular cholesterol mass (FC, EC, total). Format: cell-based, human. The conditions noted are these: +NEM 2 mM; increase over 120 min, 37° C. The protocol:
The FC and EC mass of cell monolayers was determined before and after incubation with lipoprotein as described above. Portions of the chloroform phase were analyzed for total and free cholesterol. Except where indicated each data point represents the mean of triplicate dishes. The coefficient of variation was <5% of means in these experiments.
120 min. at 37° C. Initial cell FC was […].

For experiment [5], the system named is vesicular transport. The conditions noted are these: assays of vesicular transport in vitro; cited from earlier work.
Experiment [6] relates to LDL FC uptake by fibroblast monolayers. Description: Effects of metabolic inhibitors on uptake of 3H-cholesterol from LDL (Example 1).
Experiment [7] relates to intracellular FC transport to the cell surface in fibroblast monolayers. Description: Transfer of intracellular 3H-FC to the cell surface (cholesterol oxidase). In kind it is cell-based, human. The conditions noted are these: in words. The protocol: This assay utilized the finding (see Example 1) that only FC in the caveolar fraction of the plasma membrane fraction was modified by cholesterol oxidase in unfixed fibroblast monolayers.
The rate at which intracellular LDL-derived ^3 H-FC became accessible at the cell surface was measured as follows. Cell monolayers were labeled with ^3 H-FC LDL under the conditions shown for each experiment. Unbound and adsorbed LDL were removed as described above. In some experiments metabolic inhibitors of different transport steps were then added for 30 min at 15° C. […] Cholesterol oxidase (Boehringer-Manheim, Indianapolis, Ind., USA) was added in PBS to a final concentration of 1 U ml^-1. Incubation was for 4 h at 0° C. The cells were washed with ice-cold PBS, and extracted with 0.1 N NAOH. Cell total lipid was extracted with chloroform-methanol (1:1 v/v). […] .
Fibroblast monolayers were prelabeled with FC-labeled LDL for 2 min at 31° C. Medium and surface-bound labeled LDL were removed as described above. The cells were incubated with inhibitors of intracellular transport for 30 min at 15° C. Movement of FC label to the cell surface remained negligible (FIG. 11). The cells were brought to 31° C. for 15 min, and then cooled on wet ice. ^3 H-FC transfer to the cell surface (in the presence and absence of inhibitor) was assayed with cholesterol oxidase as described above.

The subject of experiment [8] is caveolin mRNA. The experiment in a line: Caveolin mRNA levels (Northern blot). The conditions noted are these: 80% v/v plasma + 50 μM cholesterol α-epoxide, 8 h with actinomycin, 37° C.
For experiment [9], the system named is caveolin promoter. Description: Luciferase expression driven by caveolin promoter (pGL3). The settings on record: Homo sapiens, Skin fibroblast, 3 h; 50 μM cholesterol α-epoxide, 80% v/v plasma; read-out: reduction of luciferase expression. In kind it is cell-based. The source says: The pGL3 luciferase vector (Promega, Madison, Wis.) was used for cloning purposes. A 705 bp Bgl II restriction fragment corresponding to -781 to -76 bp (relative to the translational start site) was isolated from the 4 kb genomic fragment described above. This was subcloned into the Bgl II site of the vector. The orientation of the insert was identified by restriction mapping and DNA sequencing.
Mutations of sequences within the promoter were created by deletional mutagenesis on single strand DNA, using the Sculptor mutagenesis kit (Amersham). On the basis of the caveolin gene promoter sequence, three oligonucleotides were designed: i) from -664 to -620 with bases -646 to -637 deleted; ii) from -412 to -363 with bases -395 to -386 deleted; and iii) from -302 to -262 with bases -287 to -278 deleted. These were used to generate the promoter mutants designated Δ1, Δ2 and Δ3 respectively.
Normal skin fibroblasts were plated at a density of 5-8×10^5 cells per 6 cm dish. These cells were transfected with 10 μg per dish of the wild type (705 bp) caveolin promoter fragment subcloned in the forward and reverse orientation in the luciferase expression vector pGL3. […] After 10-20 sec, luciferase activity was determined using an analytical luminometer (Monolight 2010, Analytical Luminescence Laboratories, San Diego, Calif.).

Experiment [10] relates to LDL FC uptake by fibroblast monolayers. The conditions noted are these: in words.
Experiment [11] has as its system caveolin mRNA. The settings on record: literature; cited from earlier work.
In experiment [12] the test system is human hepatoblastoma (HepG2) cells. The conditions noted are these: cited from earlier work.
The subject of experiment [13] is fibroblasts. The settings on record: fibroblast monolayers; cited from earlier work.

“Also recorded” adds a separate entry of the source. Read-outs that look alike come from different tables or passages of the source. Some results are limits rather than exact numbers.

In experiment [1] (+NEM 2 mM, proportion retained after 80% v/v plasma-PBS, 10 min, 37° C.), `CCN1C(=O)C=CC1=O` [N-ethylmaleimide] displayed a Lipoprotein-resistant label of 0.24 ± 0.03. For the same molecule, the “initial rate of efflux of FC from prelabeled cells to plasma” value in experiment [1] (in words, listed as NEM) was “increased rate of efflux; also recorded: increased several-fold”. In addition, the “effect on uptake of 3H-FC from LDL” value in experiment [2] is “blocks selective uptake of FC from LDL”. In addition, the “FC label with clathrin at d 1.12 g ml^-1” value in experiment [3] was “no peak of FC label was present with clathrin at d 1.12 g ml^-1”. The same molecule gave a D total cholesterol in experiment [4] of 0.4 ± 0.2 Fg dish^-1. Further, the “concentration for maximal inhibition” value in experiment [5] is 1 mM. Besides, the “inhibition of the uptake of free cholesterol from LDLs” value in experiment [6] (FIG. 8) is on record as greater than 80%. In addition, the “time course of inhibition of LDL FC uptake” value in experiment [6] (NEM: first 10-15 min, KNO3: 50 mM, data not shown) is “no effect”. Further, the “time to complete inhibition” value in experiment [6] (cells prelabeled to equilibrium (24 h) with 3H-FC) is listed as no more than 30 min. In addition, the “inhibition of the uptake of 3H-FC from LDL” value in [6] (preincubated 30 min with NEM, incubation beyond 10-15 min, FIG. 8) is on record as greater than 80%. In addition, the “effect on transport of intracellular 3H-FC to the cell surface” value in [7] is recorded as “inhibited the return of FC to the cell surface, but less effectively than did nocodazole”.

`CC(C)CCC[C@@H](C)[C@H]1CC[C@H]2[C@@H]3CC4OC45C[C@@H](O)CC[C@]5(C)[C@H]3CC[C@]12C` (stereo partly drawn) [cholesterol α-epoxide]: the “caveolin mRNA level relative to total RNA” value in [8] was 0.47. For the same molecule, in experiment [9], the inhibition at 50 µM came to 60%.

As for `CC(=O)[C@H]1CC[C@H]2[C@@H]3CCC4=CC(=O)CC[C@]4(C)[C@H]3CC[C@]12C` [Progesterone], the “effect on LDL FC uptake” value is reported as “no effect” in [10] and “without effect” in experiment [6] (in words). In addition, the “effect on caveolin mRNA levels” value in experiment [11] is “reduced equilibrium caveolin mRNA levels”. Moreover, the “effect on transfer of FC from plasma membrane to cell interior” value in experiment [12] is reported as “promoted the transfer of FC from the plasma membrane to the interior of the cell”. The “transport of FC between the TGN and cell surface” value in experiment [13] is “inhibited FC transport between the TGN and cell surface”.
